Entries after “also recorded” stand apart in the source; their conditions may differ. Where two headings read alike, the source gives them in different places.
How the values were obtained:
LM8 cells = assay: Proliferation assay (TetraColor One), LM8 cells; assay type: cell-based, murine; conditions: for IC50: 48 h, NS = not significant, read-out: IC50, inhibition of proliferation, LM8
Description: (§1) Two tumor cell lines such as LM8, LM8G7, and UV♀2 endothelial were used to evaluate the anti-proliferative activity of the compounds. UV♀2 (1×10^4 cells) or LM8 or LM8G7 cells (5×10^3 cells) were seeded in 96-well plate and incubated overnight at 37°C. […] 5 µL of TetraColor One reagent was added and incubated for an additional 2–4 h and the absorbance at 450 nm (Bio-Rad) was measured. […] The results were expressed as a percentage of viable cells relative to cells treated with DMSO. The viability of the cells was expressed in percentage terms and IC50 value was calculated.

UV♀2 cells = assay: Proliferation assay (TetraColor One), UV♀2 endothelial cells; assay type: cell-based, mouse; conditions: for IC50: 48 h, serum-containing conditions (10%FBS), NS = not significant, read-out: IC50, inhibition of proliferation, UV♀2
Description: as §1

LM8G7 cells = assay: Proliferation assay (TetraColor One), LM8G7 cells; assay type: cell-based, murine; conditions: for IC50: NS = not significant, read-out: IC50, inhibition of proliferation, LM8G7
Description: as §1

VEGF = target: T1, VEGF (Homo sapiens, UniProt P15692); assay: SPR imaging of immobilized small molecules binding to VEGF; conditions: compounds immobilized on chip, growth factor 50 µg/mL
T1 construct: purchased Wako Pure Chemicals Co. (Osaka, Japan)
T1 sequence (P15692 1-191 isoform P15692-4): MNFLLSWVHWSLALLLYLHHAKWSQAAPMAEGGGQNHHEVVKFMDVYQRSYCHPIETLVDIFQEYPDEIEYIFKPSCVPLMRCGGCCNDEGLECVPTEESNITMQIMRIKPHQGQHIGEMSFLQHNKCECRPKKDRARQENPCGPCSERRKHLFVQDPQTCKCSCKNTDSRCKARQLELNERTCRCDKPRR
Description: (§2) The chip was washed successively with ethanol, water, and ethanol. Then the chip is air dried to obtain the photo reactive chip. The compounds 1–9 were spotted on the chip (10 mM), washed, and dried in vacuo, and then irradiated at 365 nm under a UV transmission filter (Sigma-Koki, Japan). The compounds were immobilized onto the photo-reactive linker that bound to the gold-surface of the glass chip was set into an SPR imaging instrument (TOYOBO), and each growth factor (50 µg/mL) was injected onto the array surface at 0.1 ml/min and incubated for 10 min. The SPR image and signal data were collected with an SPR analysis program (TOYOBO). The SPR difference image was constructed by using the Scion Image program (Scion, MD).

[1] = target: T2, VEGF165 binding to immobilised heparin (Homo sapiens, UniProt P15692); assay: BIAcore analysis of VEGF165 binding to immobilised heparin; conditions: VEGF165 250 nM
T2 construct: purchased Wako Pure Chemicals Co. (Osaka, Japan)
T2 sequence (P15692 1-191 isoform P15692-4): T1 sequence (P15692 1-191 isoform P15692-4)
Description: The heparin-immobilized sensor chip was prepared as reported earlier. […] The flow rate was kept at a moderate speed ([…]) according to the manufacturer's recommendations.

FGF-2 = target: T3, FGF-2 (Homo sapiens, UniProt P09038); assay: SPR imaging of immobilized small molecules binding to FGF-2; conditions: compounds immobilized on chip, growth factor 50 µg/mL
T3 construct: purchased Wako Pure Chemicals Co. (Osaka, Japan)
T3 sequence (P09038 134-288): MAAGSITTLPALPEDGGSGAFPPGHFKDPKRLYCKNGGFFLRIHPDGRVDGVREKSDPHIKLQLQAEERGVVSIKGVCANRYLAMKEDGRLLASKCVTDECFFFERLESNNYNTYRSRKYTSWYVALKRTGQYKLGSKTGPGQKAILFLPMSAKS
Description: as §2

[2] = Mus musculus, LM8G7, 48 h, 48 h

| binding to VEGF (SPR signal) (VEGF) | SMILES | IC50 (LM8 cells; Mus musculus) [µM] | IC50 (UV♀2 cells; Mus musculus, Endothelial cell) [µM] | IC50 (LM8G7 cells; [2]) [µM] | also measured |
| --- | --- | --- | --- | --- | --- |
| – | N.N.[Cl][Pt][Cl] [Cisplatin, reference compound] | – | – | – | IC50 (LM8 cells): 30 ± 24 µM; IC50 (UV♀2 cells): 12 ± 0.4 µM; IC50 (LM8G7 cells; 48 h): 15 ± 0.6 µM |
| – | Cc1ccc(C(=O)Nc2ccc(S(=O)(=O)O)c3cc(S(=O)(=O)O)cc(S(=O)(=O)O)c23)cc1NC(=O)c1cccc(NC(=O)Nc2cccc(C(=O)Nc3cc(C(=O)Nc4ccc(S(=O)(=O)O)c5cc(S(=O)(=O)O)cc(S(=O)(=O)O)c45)ccc3C)c2)c1 [Suramin, reference compound] | 12 ± 2.8 | 34 ± 1.4 | – | inhibition of proliferation of LM8 cells (in words) (LM8 cells): comparable with the inhibitory activity of compound 8; inhibition of proliferation of LM8G7 cells (in words) (LM8G7 cells): comparable with the inhibitory activity of compound 8; IC50 (LM8G7 cells; Mus musculus, LM8G7, 48 h): 14 ± 24 µM |
| – | Cc1nnc(S)n1N=Cc1c(F)cccc1F [compound 5, 4-[(2,6-Difluoro-benzylidene)-amino]-5-methyl-4H-[1,2,4]triazole-3-thiol] | 36 ± 6.4 | 45 ± 2.1 | > 100 | – |
| does not bind VEGF | Fc1cccc(F)c1C=Nn1c(S)nnc1-c1ccccc1 [compound 7, 4-[(2,6-difluoro-benzylidene)-amino]-5-phenyl-4H-[1,2,4]triazole-3-thiol] | > 100 | > 100 | > 100 | inhibition of binding of VEGF165 to immobilised heparin [1]: failed to inhibit the binding of VEGF to heparin |
| very strongly; also recorded: strongly | CCCCc1nc(Cl)c(C=O)n1Cc1ccc([N+](=O)[O-])cc1 [compound 8, 2-butyl-5-chloro-3-(4-nitro-benzyl)-3H-imidazole-4-carbaldehyde] | – | – | – | inhibition of binding of VEGF165 to immobilised heparin [1]: inhibited the binding of VEGF165 to the immobilised heparin; binding to FGF-2 (SPR signal) (FGF-2): significantly, although with weaker affinity compared to its VEGF binding; also recorded: weakly |
| – | CCCCc1nc(Cl)c(C=O)n1Cc1cc2c(cc1C)OCO2 [compound 9] | – | – | – | IC50 (LM8 cells): 46 ± 6.7 µM; IC50 (UV♀2 cells): > 100 µM; IC50 (LM8G7 cells; 48 h): > 100 µM |

| SMILES | binding to VEGF (SPR signal) (VEGF) | IC50 (LM8 cells; Mus musculus) [µM] | IC50 (UV♀2 cells; Mus musculus, Endothelial cell) [µM] | IC50 (LM8G7 cells; [2]) [µM] | also measured |
| --- | --- | --- | --- | --- | --- |
| CCc1nnc(S)n1N=Cc1c(F)cccc1F [compound 6, 4-[(2,6-Difluoro-benzylidene)-amino]-5-ethyl-4H-[1,2,4]triazole-3-thiol] | significantly; also recorded: weak binding | 64 ± 6.7 | 14 ± 4.6 | 23 ± 0.5 | effect on proliferation of UV♀2 cells (in words) (UV♀2 cells): moderately inhibited |
